Assay results published in ChEMBL document CHEMBL1201862, “PubChem BioAssay data set” (2004).
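Briefly, cells in 96-well plates were exposed to five compound concentrations for 48 h, and endpoints were estimated by linear interpolation. GI50 is the concentration that inhibits growth by half.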 Calls of active or inactive are those of the source. Cut-off read from the data, not from the text of the source: active = GI50 up to about 1.1 µM and inactive = higher.

Key:
Assay in all cases: growth of human tumour cells (NCI), 48 h
[1] = system: 786-0
[2] = system: A498
[3] = system: A549
[4] = system: ACHN
[5] = system: CAKI-1
[6] = system: CCRF-CEM
[7] = system: COLO 205
[8] = system: DLD-1
[9] = system: DMS-114
[10] = system: EKVX
[11] = system: HCC 2998
[12] = system: HCT-116
[13] = system: HCT-15
[14] = system: HL-60
[15] = system: HOP-18
[16] = system: HOP-62
[17] = system: HOP-92
[18] = system: HT-29
[19] = system: IGROV-1
[20] = system: K562
[21] = system: KM-20L2
[22] = system: KM12
[23] = system: LXFL 529
[24] = system: M14
[25] = system: M19-MEL
[26] = system: MOLT-4
[27] = system: Malme-3M
[28] = system: NCI-H23
[29] = system: NCI-H460
[30] = system: NCI-H522
[31] = system: OVCAR-3
[32] = system: OVCAR-4
[33] = system: OVCAR-5
[34] = system: OVCAR-8
[35] = system: RXF 393
[36] = system: RXF 631
[37] = system: SF-268
[38] = system: SF-295
[39] = system: SF-539
[40] = system: SK-MEL-28
[41] = system: SK-MEL-2
[42] = system: SK-MEL-5
[43] = system: SN12C
[44] = system: SNB-19
[45] = system: SNB-75
[46] = system: SNB-78
[47] = system: SW-620
[48] = system: TK-10
[49] = system: U-251
[50] = system: UACC-257
[51] = system: UACC-62
[52] = system: UO-31
[53] = system: DMS-273
[54] = system: LOX IMVI
[55] = system: XF498
[56] = system: NCI-H226
[57] = system: RPMI-8226
[58] = system: SK-OV-3
[59] = system: SR
[60] = system: DU-145
[61] = system: MCF7
[62] = system: MDA-MB-435
[63] = system: NCI/ADR-RES
[64] = system: T47D
[65] = system: BT-549
[66] = system: Hs-578T
[67] = system: MDA-MB-231
[68] = system: MDA-N
[69] = system: PC-3

Measured: GI50

Cn1c(=O)c2/c(n(C)c1=O)=N\C=c1\c(=O)n(C)c(=O)n(C)\c1=N\C=2
> 100 µM: [13]
inactive: [1] > 100 µM | [2] > 100 µM | [3] > 100 µM | [4] > 100 µM | [5] > 100 µM | [6] > 100 µM | [7] > 100 µM | [8] > 100 µM | [9] > 100 µM | [10] > 100 µM | [11] > 100 µM | [12] > 100 µM | [14] > 100 µM | [15] > 100 µM | [16] > 100 µM | [17] > 100 µM | [18] > 100 µM | [19] > 100 µM | [20] > 100 µM | [21] > 100 µM | [22] > 100 µM | [23] > 100 µM | [24] > 100 µM | [25] > 100 µM | [26] > 100 µM | [27] > 100 µM | [28] > 100 µM | [29] > 100 µM | [30] > 100 µM | [31] > 100 µM | [32] > 100 µM | [33] > 100 µM | [34] > 100 µM | [35] > 100 µM | [36] > 100 µM | [37] > 100 µM | [38] > 100 µM | [39] > 100 µM | [40] > 100 µM | [41] > 100 µM | [42] > 100 µM | [43] > 100 µM | [44] > 100 µM | [45] 39.4 µM | [46] 76.2 µM | [47] > 100 µM | [48] > 100 µM | [49] > 100 µM | [50] > 100 µM | [51] > 100 µM | [52] > 100 µM

CC1=C(Cl)C=CP(=O)(Oc2ccccc2)C1 (stereo not drawn)
74.3 µM: [13]
inactive: [3] 38.8 µM | [4] > 100 µM | [5] > 100 µM | [6] > 10 µM | [7] 27.6 µM | [9] 25.4 µM | [53] 27.5 µM | [10] > 100 µM | [11] > 100 µM | [12] 30.8 µM | [14] > 10 µM | [15] 23.1 µM | [16] > 100 µM | [17] > 100 µM | [19] > 100 µM | [20] > 10 µM | [21] > 100 µM | [22] > 100 µM | [54] 33 µM | [23] 15.3 µM | [24] 19.1 µM | [26] > 10 µM | [27] 44.5 µM | [28] 45.7 µM | [29] 32.6 µM | [30] 15.6 µM | [31] > 100 µM | [32] > 100 µM | [33] > 100 µM | [34] 23.3 µM | [37] 29.1 µM | [38] > 100 µM | [40] 26.4 µM | [41] 41.3 µM | [42] 55.6 µM | [44] > 100 µM | [46] 41.1 µM | [47] 39.4 µM | [49] > 100 µM | [50] 71.6 µM | [51] 43.2 µM | [52] 38.3 µM | [55] 57.7 µM

COC(=O)C1=Cc2c(cc(OC)c(OC)c2OC)[C@H](c2ccc(OC)c(OC)c2OC)C1C(=O)OC (stereo partly drawn)
inactive: [1] > 100 µM | [2] > 100 µM | [3] > 100 µM | [4] > 100 µM | [5] > 100 µM | [6] > 100 µM | [7] 55.7 µM | [8] > 100 µM | [9] 61.7 µM | [53] 29.5 µM | [10] > 100 µM | [11] > 100 µM | [12] 92.3 µM | [14] 54.6 µM | [16] > 100 µM | [17] 17.4 µM | [18] 36.1 µM | [19] > 100 µM | [20] > 100 µM | [21] > 100 µM | [22] > 100 µM | [54] > 100 µM | [23] > 100 µM | [24] > 100 µM | [25] > 100 µM | [26] 83 µM | [27] > 100 µM | [56] > 100 µM | [28] > 100 µM | [29] > 100 µM | [30] 89.9 µM | [31] > 100 µM | [32] > 100 µM | [33] > 100 µM | [34] > 100 µM | [57] 89.5 µM | [35] > 100 µM | [36] 71.8 µM | [37] > 100 µM | [38] 65.9 µM | [39] > 100 µM | [40] > 100 µM | [42] > 100 µM | [58] > 100 µM | [43] > 100 µM | [44] > 100 µM | [45] > 100 µM | [46] 40.8 µM | [59] 46.7 µM | [47] > 100 µM | [48] > 100 µM | [49] > 100 µM | [50] > 100 µM | [51] 54.2 µM | [52] 47.1 µM
75 µM: [13]

COc1cc2c(c(OC)c1OC)-c1ccc(OC)c(=O)cc1[C@@H](NC(C)=O)CC2 [COLCHICINE]
active: [8] 0.0625 µM | [60] 0.659 µM | [12] 0.0168 µM | [14] < 0.0625 µM | [20] 0.0135 µM | [21] < 0.0625 µM | [61] 0.0625 µM | [62] < 0.01 µM | [26] 0.0237 µM | [30] 0.0119 µM | [63] 0.845 µM | [36] 0.0363 µM | [52] 0.56 µM
inactive: [10] 49 µM | [15] > 68.9 µM | [32] 12.9 µM | [33] 7.18 µM | [64] > 78.3 µM | [48] 23.7 µM

NC(=O)NO [HYDROXYUREA]
inactive: [1] 303 µM | [2] 693 µM | [3] 514 µM | [4] 108 µM | [65] 1660 µM | [5] 270 µM | [6] 50.4 µM | [7] 1740 µM | [8] 1450 µM | [53] 137 µM | [60] 818 µM | [10] 1790 µM | [11] 679 µM | [12] 995 µM | [14] 18.4 µM | [15] 933 µM | [16] 904 µM | [17] 895 µM | [18] 605 µM | [66] 740 µM | [19] 1110 µM | [20] 877 µM | [21] 436 µM | [22] 902 µM | [54] 700 µM | [23] 713 µM | [24] 597 µM | [25] 1420 µM | [61] 385 µM | [67] > 1410 µM | [62] 2000 µM | [68] 1940 µM | [26] 222 µM | [27] 1170 µM | [56] 773 µM | [28] 710 µM | [29] 344 µM | [30] 729 µM | [63] 390 µM | [31] 1240 µM | [32] 1850 µM | [33] 601 µM | [34] 504 µM | [69] 1010 µM | [57] 277 µM | [35] 857 µM | [37] 524 µM | [38] 313 µM | [39] 315 µM | [40] 1920 µM | [41] 2000 µM | [42] 507 µM | [58] 1680 µM | [43] 738 µM | [44] 1580 µM | [45] 817 µM | [46] 2160 µM | [59] 217 µM | [47] 1090 µM | [64] 1490 µM | [48] 1980 µM | [49] 581 µM | [50] 1810 µM | [51] 291 µM | [52] 508 µM | [55] 820 µM
871 µM: [13]
